Our source for the solubility in PO4 buffer and IC50 values is patent US9234000B2, “Benzylamine derivatives as inhibitors of plasma kallikrein” (KalVista Pharmaceuticals Limited, priority 2011, dated 2016).

One series can be described thus: physchem. The following applies: pH 7. How it is done: Determination of the Kinetic Solubility in Phosphate Buffer
After shaking for approximately 30 seconds the reduction in light transmission of these samples, at 650 nm, was measured (Molecular Devices Spectromax UV/visible spectrophotometer). A second measurement was taken at approximately 30 seconds later.

Another series deals with Human plasma kallikrein (Homo sapiens (Human), UniProt P03952). Description: Determination of the IC50 for plasma kallikrein. In kind it is biochemical. Particulars: fluorogenic substrate H-DPro-Phe-Arg-AFC, 37° C., read-out: IC50 (human PKal). A digest of the protocol:
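Residual activity (initial rate, absorbance at 410 nm) gave the IC50. Reactions at 37° C combined human plasma kallikrein, substrate H-DPro-Phe-Arg-AFC and a range of inhibitor concentrations.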

A further series concerns the target Human KLK1 (Homo sapiens (Human), UniProt P06870). Description: Determination of the IC50 for KLK1. Particulars: Human KLK1, 37° C., substrate H-DVal-Leu-Arg-AFC; Table 12. The series is classed as biochemical. A digest of the protocol: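 hKLK1 + H-DVal-Leu-Arg-AFC, 37° C, varied cpd conc. Initial rate by A410 change → residual activity → IC50.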

Sequence of Human plasma kallikrein (P03952 391-638): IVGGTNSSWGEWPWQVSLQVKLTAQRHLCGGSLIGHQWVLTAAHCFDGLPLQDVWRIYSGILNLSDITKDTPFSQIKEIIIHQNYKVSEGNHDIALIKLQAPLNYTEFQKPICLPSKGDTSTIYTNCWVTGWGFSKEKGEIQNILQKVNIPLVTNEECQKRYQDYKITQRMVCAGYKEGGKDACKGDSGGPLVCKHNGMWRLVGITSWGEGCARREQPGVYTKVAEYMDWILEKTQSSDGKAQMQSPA
Sequence of Human plasma kallikrein (P03952 20-390 partner): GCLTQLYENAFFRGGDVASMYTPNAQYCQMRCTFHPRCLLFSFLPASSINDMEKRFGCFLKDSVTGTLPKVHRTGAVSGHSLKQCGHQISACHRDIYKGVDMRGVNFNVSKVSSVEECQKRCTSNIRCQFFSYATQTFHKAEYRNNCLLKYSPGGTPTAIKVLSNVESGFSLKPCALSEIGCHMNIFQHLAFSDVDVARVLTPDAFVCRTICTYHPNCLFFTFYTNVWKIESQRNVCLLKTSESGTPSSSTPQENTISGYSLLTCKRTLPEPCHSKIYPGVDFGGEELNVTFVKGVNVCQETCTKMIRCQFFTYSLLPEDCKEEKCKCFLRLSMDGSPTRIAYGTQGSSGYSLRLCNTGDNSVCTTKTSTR
Sequence of Human KLK1 (P06870 25-262): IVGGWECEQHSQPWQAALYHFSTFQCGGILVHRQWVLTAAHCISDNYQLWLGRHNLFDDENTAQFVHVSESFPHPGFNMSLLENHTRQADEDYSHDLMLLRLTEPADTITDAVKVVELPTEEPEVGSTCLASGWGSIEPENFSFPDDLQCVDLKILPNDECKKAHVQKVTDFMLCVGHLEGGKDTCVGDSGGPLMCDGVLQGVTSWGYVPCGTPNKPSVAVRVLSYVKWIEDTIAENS

In the case of `CN(CC(=O)O)[C@H](CC1CCCCC1)C(=O)N[C@@H](Cc1ccccc1)C(=O)NCc1ccc(CN)c(F)c1` [Example 42, ({(R)-1-[(S)-1-(4-Aminomethyl-3-fluoro-benzylcarbamoyl)-2-phenyl-ethylcarbamoyl]-2-cyclohexyl-ethyl}-methyl-amino)-acetic acid], in the series “physchem”, the solubility in PO4 buffer was above 235 µM. In addition, the IC50 (usually the concentration needed to halve the response being measured) on Human plasma kallikrein is 530 nM; at Human KLK1, above 10 µM.
`CN(Cc1ccc(CN)cc1)C(=O)[C@H](Cc1ccccc1)NC(=O)[C@@H](CC1CCCCC1)NCC(=O)O` [Example 36, ((R)-1-{(S)-1-[(4-Aminomethyl-benzyl)-methyl-carbamoyl]-2-phenyl-ethylcarbamoyl}-2-cyclohexyl-ethylamino)-acetic acid]: the solubility in PO4 buffer in “physchem” was above 235 µM. The half-maximal inhibitory concentration (IC50) at Human plasma kallikrein is 8200 nM; at Human KLK1 it was above 10 µM.
In the case of `CN(CC(=O)O)[C@H](CC1CCCCC1)C(=O)N[C@@H](Cc1ccc(Cl)c(Cl)c1)C(=O)NCc1ccc(CN)c(F)c1` [Example 43, ({(R)-1-[(S)-1-(4-Aminomethyl-3-fluoro-benzylcarbamoyl)-2-(3,4-dichloro-phenyl)-ethylcarbamoyl]-2-cyclohexyl-ethyl}-methyl-amino)-acetic acid], the solubility in PO4 buffer in the series “physchem” was above 235 µM. The IC50 at Human plasma kallikrein is 1300 nM; on Human KLK1, above 10 µM.
In “physchem”, `CCCN(C)[C@H](CC1CCCCC1)C(=O)N[C@@H](Cc1ccccc1)C(=O)NCc1ccc(CN)cc1` [Example 45, (R)-N-[(S)-1-(4-Aminomethyl-benzylcarbamoyl)-2-phenyl-ethyl]-3-cyclohexyl-2-(methyl-propyl-amino)-propionamide] yielded a solubility in PO4 buffer above 235 µM. For the same compound, the IC50 on Human plasma kallikrein is 790 nM; on Human KLK1, above 10 µM.
Turning to `CN(CC(=O)O)[C@H](CC1CCCCC1)C(=O)N[C@@H](Cc1ccccc1)C(=O)NCc1ccc(CN)cc1` [Example 29, ({(R)-1-[(S)-1-(4-Aminomethyl-benzylcarbamoyl)-2-phenyl-ethylcarbamoyl]-2-cyclohexyl-ethyl}-methyl-amino)-acetic acid], the solubility in PO4 buffer in the series “physchem” is above 235 µM. Moreover, the IC50 at Human plasma kallikrein is 300 nM; against Human KLK1, above 10 µM.
In “physchem”, `CN(C(=O)[C@@H](CC1CCCCC1)NCC(=O)O)[C@@H](Cc1ccccc1)C(=O)NCc1ccc(CN)c(F)c1` [Example 34, ((R)-1-{[(S)-1-(4-Aminomethyl-3-fluoro-benzylcarbamoyl)-2-phenyl-ethyl]-methyl-carbamoyl}-2-cyclohexyl-ethylamino)-acetic acid] registered a solubility in PO4 buffer above 235 µM. For the same compound, the results for the IC50 at Human plasma kallikrein and against Human KLK1 were 1400 nM and 7.7 µM, respectively.
In the series “physchem”, `CCOc1ccc(C[C@@H](NC(=O)CC)C(=O)N(C)[C@@H](Cc2ccccc2)C(=O)NCc2ccc(CN)cc2)cc1` [Example 26, (S)-N-(4-Aminomethyl-benzyl)-2-{[(R)-3-(4-ethoxy-phenyl)-2-propionylamino-propionyl]-methyl-amino}-3-phenyl-propionamide] had a solubility in PO4 buffer above 235 µM. The results for the half-inhibitory concentration (IC50) at Human plasma kallikrein and on Human KLK1 were 81 nM and above 10 µM, respectively.
In the case of `CCCN(CCC)[C@H](CC1CCCCC1)C(=O)N[C@@H](Cc1ccccc1)C(=O)NCc1ccc(CN)cc1` [Example 53, (R)-N-[(S)-1-(4-Aminomethyl-benzylcarbamoyl)-2-phenyl-ethyl]-3-cyclohexyl-2-dipropylamino-propionamide], in the series “physchem”, the solubility in PO4 buffer was above 235 µM. Further, the half-inhibitory concentration (IC50) is 650 nM at Human plasma kallikrein and above 10 µM at Human KLK1.
Compound `CCOc1ccc(C[C@@H](NC(C)=O)C(=O)N(C)[C@@H](Cc2ccccc2)C(=O)NCc2ccc(CN)cc2)cc1` [Example 39, (R)-2-Acetylamino-N-[(S)-1-(4-aminomethyl-benzylcarbamoyl)-2-phenyl-ethyl]-3-(4-ethoxy-phenyl)-N-methyl-propionamide] came in with a solubility in PO4 buffer in “physchem” above 235 µM. The IC50 on Human plasma kallikrein is 310 nM; at Human KLK1, above 10 µM.
In the same order, the values of `NCc1ccc(CNC(=O)[C@H](Cc2ccc(Cl)c(Cl)c2)NC(=O)[C@H](N)Cc2ccc(C(F)(F)F)cc2)cc1` [Example 18, (R)-2-Amino-N-[(S)-1-(4-aminomethyl-benzylcarbamoyl)-2-(3,4-dichloro-phenyl)-ethyl]-3-(4-trifluoromethyl-phenyl)-propionamide] are above 235 µM, 8800 nM and 1.6 µM.
`CN(C(=O)[C@@H](CC1CCCCC1)NCC(=O)O)[C@@H](Cc1ccccc1)C(=O)NCc1ccc(CN)cc1` [Example 30, ((R)-1-{[(S)-1-(4-Aminomethyl-benzylcarbamoyl)-2-phenyl-ethyl]-methyl-carbamoyl}-2-cyclohexyl-ethylamino)-acetic acid]: in the series “physchem”, the solubility in PO4 buffer was above 235 µM. For the same compound, the results for the IC50 at Human plasma kallikrein and at Human KLK1 were 580 nM and above 10 µM, respectively.
The compound `CN(C)[C@H](CC1CCCCC1)C(=O)N[C@@H](Cc1ccccc1)C(=O)NCc1ccc(CN)cc1` [Example 9, (R)-N-[(S)-1-(4-Aminomethyl-benzylcarbamoyl)-2-phenyl-ethyl]-3-cyclohexyl-2-dimethylamino-propionamide] came in with a solubility in PO4 buffer in “physchem” above 235 µM. The IC50 was 2000 nM on Human plasma kallikrein and above 1 µM against Human KLK1.
In the same order, the values of `CCOc1ccc(C[C@@H](N)C(=O)N[C@@H](Cc2ccccc2)C(=O)NCc2ccc(CN)cc2)cc1` [Example 5, (R)-2-Amino-N-[(S)-1-(4-aminomethyl-benzylcarbamoyl)-2-phenyl-ethyl]-3-(4-ethoxy-phenyl)-propionamide] are above 235 µM, 460 nM and 0.16 µM.
`CCOc1ccc(C[C@@H](NC)C(=O)N[C@@H](Cc2ccccc2)C(=O)NCc2ccc(CN)cc2)cc1` [Example 27, (R)-N-[(S)-1-(4-Aminomethyl-benzylcarbamoyl)-2-phenyl-ethyl]-3-(4-ethoxy-phenyl)-2-methylamino-propionamide]: the solubility in PO4 buffer in the series “physchem” was above 235 µM. The figures for the IC50 at Human plasma kallikrein and against Human KLK1 were 1300 nM and 4 µM, respectively.
In the case of `NCc1ccc(CNC(=O)[C@H](Cc2ccccc2)NC(=O)[C@H](N)C(C2CCCCC2)C2CCCCC2)cc1` [Example 52, (R)-2-Amino-N-[(S)-1-(4-aminomethyl-benzylcarbamoyl)-2-phenyl-ethyl]-3,3-dicyclohexyl-propionamide], the solubility in PO4 buffer in “physchem” was above 235 µM. Also, the IC50 at Human plasma kallikrein is 860 nM; at Human KLK1 it was 9.5 µM.
In the same order, the values of `NCc1ccc(CNC(=O)[C@H](Cc2ccccc2)NC(=O)[C@@H](CC2CCCCC2)NCC(=O)O)cc1` [Example 4, {(R)-1-[(S)-1-(4-Aminomethyl-benzylcarbamoyl)-2-phenyl-ethylcarbamoyl]-2-cyclohexyl-ethylamino}-acetic acid] are above 235 µM, 230 nM and above 10 µM.
In the same order, the values of `CN[C@H](CC1CCCCC1)C(=O)N[C@@H](Cc1ccc(Cl)c(Cl)c1)C(=O)NCc1ccc(CN)c(F)c1` [Example 41, (R)-N-[(S)-1-(4-Aminomethyl-3-fluoro-benzylcarbamoyl)-2-(3,4-dichloro-phenyl)-ethyl]-3-cyclohexyl-2-methylamino-propionamide] are above 235 µM, 1300 nM and 2.5 µM.
